Measurements from ChEMBL document CHEMBL3813681, “Synthesis and structure-activity relationship of 2,6-disubstituted pyridine derivatives as inhibitors of β-amyloid-42 aggregation” (Bioorg Med Chem Lett, 2016).
In brackets after ≈: the same amount, converted by molar mass.

Columns and labels:
[1] = target: T1, Amyloid-beta precursor protein (Homo sapiens, UniProt P05067); assay: Inhibition of Abeta42 (unknown origin) aggregation assessed as ThT fluorescence at 330 uM measured after 24 hrs by ThT fluorescence assay relative to DMSO control; design: scale not given: the % may be the effect or the level left
T1 sequence (P05067 whole entry): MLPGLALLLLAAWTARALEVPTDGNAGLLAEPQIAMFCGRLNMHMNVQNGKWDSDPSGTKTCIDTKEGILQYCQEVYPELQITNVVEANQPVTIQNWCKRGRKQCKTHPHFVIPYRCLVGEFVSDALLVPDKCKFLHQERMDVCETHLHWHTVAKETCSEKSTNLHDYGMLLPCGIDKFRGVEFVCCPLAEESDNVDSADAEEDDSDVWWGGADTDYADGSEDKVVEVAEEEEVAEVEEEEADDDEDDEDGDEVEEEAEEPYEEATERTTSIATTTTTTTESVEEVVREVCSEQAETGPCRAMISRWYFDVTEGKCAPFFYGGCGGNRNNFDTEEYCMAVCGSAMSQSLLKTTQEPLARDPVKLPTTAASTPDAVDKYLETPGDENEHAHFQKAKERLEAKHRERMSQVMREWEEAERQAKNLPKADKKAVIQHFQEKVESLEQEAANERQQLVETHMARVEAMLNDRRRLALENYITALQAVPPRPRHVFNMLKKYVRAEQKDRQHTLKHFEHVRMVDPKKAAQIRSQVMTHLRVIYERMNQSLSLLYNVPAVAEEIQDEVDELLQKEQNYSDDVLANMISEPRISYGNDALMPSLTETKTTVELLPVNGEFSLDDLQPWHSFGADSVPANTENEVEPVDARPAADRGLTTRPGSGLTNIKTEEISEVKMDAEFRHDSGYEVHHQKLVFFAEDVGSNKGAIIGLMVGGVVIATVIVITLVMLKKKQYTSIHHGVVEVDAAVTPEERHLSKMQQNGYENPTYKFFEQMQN

[2] = target: T1, Amyloid-beta precursor protein; assay: Inhibition of Abeta42 (unknown origin) aggregation measured after 24 hrs by ThT fluorescence assay
[3] = Volume of distribution in Swiss mouse brain at 2 mg/kg, iv; assay type: ADME, organism-based
[4] = Ratio of drug level in brain to plasma in Swiss mouse at 2 mg/kg, iv measured after 5 mins; assay type: ADME, organism-based; details: brain and plasma, read-out: BPR
Liver = assay: Clearance in human liver S9 fraction; assay type: ADME, subcellular
[5] = Half life in Swiss mouse plasma at 2 mg/kg, iv; assay type: ADME, organism-based
[6] = Half life in Swiss mouse brain at 2 mg/kg, iv; assay type: ADME, organism-based
[7] = Half life in human liver S9 fraction; assay type: ADME, subcellular
[8] = Apparent permeability of the compound from apical to basolateral side; assay type: physicochemical; details: not told
[9] = Cmax in Swiss mouse plasma at 2 mg/kg, iv; assay type: ADME, organism-based; design: dose 2 mg/kg, route intravenous
[10] = AUC in Swiss mouse brain at 2 mg/kg, iv; assay type: ADME, organism-based
[11] = Volume of distribution in Swiss mouse plasma at 2 mg/kg, iv; assay type: ADME, organism-based
[12] = AUC in Swiss mouse plasma at 2 mg/kg, iv; assay type: ADME, organism-based
[13] = Lipophilicity, logD of the compound; assay type: physicochemical; details: octanol/water
P-gp = assay: Substrate activity at P-gp (unknown origin) assessed as efflux ratio of apparent permeability of the compound; assay type: ADME; details: human, not told
[14] = Aqueous solubility of the compound in PBS at pH 7.4; assay type: physicochemical
[15] = Cmax in Swiss mouse brain at 2 mg/kg, iv; assay type: ADME, organism-based; design: dose 2 mg/kg, route intravenous

| Activity [1] | IC50 [2] | also measured | Structure (SMILES) |
| --- | --- | --- | --- |
| 23% |  |  | CNc1cccc(CNc2cccc(CCN(c3ccccn3)c3ccccn3)n2)n1 |
| 16% | 240 µM |  | CNc1cccc(CCNc2cccc(CCN(c3ccccn3)c3ccccn3)n2)n1 |
| 16% | 280 µM |  | CNc1cccc(CCNc2cccc(CCNc3ccccn3)n2)n1 |
| 36% |  |  | CNc1cccc(NCCc2ccccn2)n1 |
| 23% |  |  | CNc1cccc(CCNc2cccc(CCCNc3ccccn3)n2)n1 |
| > 60% |  |  | CNc1cccc(CNc2cccc(CCNc3ccccn3)n2)n1 |
| 14% |  |  | CNc1cccc(NCCc2cccc(NCc3ccccn3)n2)n1 |
| 23% |  |  | CNc1cccc(CCCNc2cccc(CCCNc3ccccn3)n2)n1 |
| 12% | 25 µM | Vd [3]: 18.9 L/kg; Kp at 5 min [4]: 5.98; CLH (Liver): 70 µL/min/mg; half-life [5]: 37.8 min; half-life [6]: 314 min; half-life [7]: 10 min; Papp A→B [8]: 492 nm/s; Cmax [9]: 0.308 µg/mL; AUC [10]: 0.863 µg·h/mL; Vd [11]: 12 L/kg; AUC [12]: 0.15 µg·h/mL; logD [13]: 2.96; efflux ratio (P-gp): 0.78; solubility [14]: > 200 µM; Cmax [15]: 1.84 µg/mL | CNc1cccc(NCCc2cccc(NCCc3ccccn3)n2)n1 |
| 12% |  | solubility [14]: > 200 µM | CNc1cccc(CCNc2cccc(NCCc3ccccn3)n2)n1 |
| 12% | 17 µM |  | CNc1cccc(NCCCc2cccc(NCCCc3ccccn3)n2)n1 |
| > 60% |  | solubility [14]: 18 µM (≈ 5.77 µg/mL) | CNc1cccc(CNc2cccc(CNc3ccccn3)n2)n1 |
| 23% |  |  | CNc1cccc(CCNc2cccc(NC)n2)n1 |
|  | 1.3 µM |  | Nc1c(/N=N/c2ccc(-c3ccc(/N=N/c4cc(S(=O)(=O)O)c5ccccc5c4N)cc3)cc2)cc(S(=O)(=O)O)c2ccccc12 [CONGO RED] |
| 53% |  |  | CNc1cccc(CCNc2cccc(CNc3ccccn3)n2)n1 |
